We go through four compounds from patent publication US6645911B2, “Synergistic herbicidal mixtures” (BASF Aktiengesellschaft, priority 2000, dated 2003).

Holding throughout (format): in vivo
Test [1] relates to Stellaria media. Description: Postemergence herbicidal greenhouse evaluation, Test Serie A (Table II, picolinafen/carfentrazone-ethyl). As to conditions: 21 days after treatment. As for the experimental part: (§1) In the following examples, synergism for two-way combinations is determined by the Colby^1 method, i.e. the expected (or predicted) response of the combination is calculated by taking the product of the observed response for each individual component of the combination when applied alone divided by 100 and subtracting this value from the sum of the observed response for each component when applied alone. Synergism of the combination is then determined by comparing the observed response of the combination to the expected (or predicted) response as calculated from the observed responses of each individual component alone. If the observed response of the combination is greater than the expected (or predicted) response then the combination is said to be synergistic and falls within the definition of synergistic effect as previously defined.
(§2) Postemergence Herbicidal Greenhouse Evaluations
(§3) Plant seeds are sown in pots containing a loamy sand soil (0.5 l). The herbicides are applied as single treatments, or in a combination comprising a compound of formula I and a second compound as defined above, after emergence of weeds and crop. The herbicidal performance is assessed as percent damage in comparison to the untreated control plants. The assessment is done 21 days after the treatment. Wheat and barley are treated at the 3-4 leaf stage, the broad-leaf weeds at the 2-4 leaf stage and annual grasses at the 2-3 leaf stage. [formula]
(§4) For the compound of formula I picolinafen is employed.
(§5) The damage caused by the chemicals was assessed with reference to a scale from 0 to 100% in comparison with the untreated control plants. 0 means no damage and 100 means compete destruction of the plants.

For another test, the system named is Alopecuris myosuroides. Description: Postemergence herbicidal greenhouse evaluation, Test Serie A (Table I). The settings on record: 21 days after treatment. As for the experimental part: as §1, §2, §3, §4, §5
Another test concerns Galium aparine. Described as above. The settings on record: 21 days after treatment. As for the experimental part:
as §1, §2, §3, §4, §5

A further test relates to Lamium purpurium. The test is described as above. As to conditions: 21 days after treatment. As for the experimental part: as §1, §2, §3, §4, §5
Another test has as its system Papaver rhoeas. The test is described as above. The settings on record: 21 days after treatment. On the procedure: as §1, §2, §3, §4, §5
Test [2] has as its system Stellaria media. Described as above. As to conditions: 21 days after treatment. On the procedure: as §1, §2, §3, §4, §5
The next test concerns Anthimis mixta. As to the kind of experiment: Postemergence herbicidal evaluation, Test Serie B, in spring wheat (Table III). The settings on record: weed growth stage 14, test period 14 days. On the procedure:
as §1, §5
(§6) For the post-emergence treatment, the test plants were first grown to a height of 3 to 20 cm, depending on the growth habit, and only then treated. The herbicides were suspended or emulsified in water as the vehicle and sprayed with the aid of finely distributing nozzles.
(§7) Cinidon-ethyl was formulated as a 20% by weight emulsion concentrate and employed in the spray mixture with addition of that amount of solvent system with which the active ingredient had been applied at the application rates shown in the tables.
(§8) Picolinofen was formulated as a 10% by weight emulsion concentrate and empolyed in the spray mixture with addition of that amount of solvent system with which the active ingredient had been applied at the rates shown in the tables.
(§9) The test period extended over 14 days. During this time, the plants were attended, and their responses to the treatments with active ingredients were recorded (Tables III and IV).

The subject of another test is Veronica persicaria. The test is described as above. As to conditions: weed growth stage 14, test period 14 days. As for the experimental part: as §1, §5, §6, §7, §8, §9
For test [3], the system named is Stellaria media. As to the kind of experiment: Postemergence herbicidal evaluation, Test Serie B, in spring barley (Table IV). As to conditions: weed growth stage 22, test period 14 days. On the procedure:
as §1, §5
For the post-emergence treatment, the test plants were first grown to a height of 3 to 20 cm, depending on the growth habit, and only then treated. […]
as §9

Setting [4] is: Picolinafen 30 g/ha, Flufenacet 0 g/ha.
[5] abbreviates: Picolinafen 60 g/ha, Flufenacet 0 g/ha.
The mark [6] stands for this setting: Picolinafen 15 g/ha, Flufenacet 0 g/ha.
[7] abbreviates: Picolinafen 0 g/ha, Flufenacet 15 g/ha.
Where [8] appears, read: Picolinafen 0 g/ha, Flufenacet 30 g/ha.
Where [9] appears, read: Picolinafen 0 g/ha, Flufenacet 120 g/ha.

On to `CCOC(=O)C(Cl)Cc1cc(-n2nc(C)n(C(F)F)c2=O)c(F)cc1Cl` (racemic) [Carfentrazone-ethyl, ethyl (RS)-2-chloro-3-[2-chloro-5-(4-difluoromethyl-4,5-dihydro-3-methyl-5-oxo-1H-1,2,4-triazol-1-yl)-4-fluorophenyl]propionate], for which the “% Control OBS” value in the test on Stellaria media [1] (Picolinafen 0 g/ha, Carfentrazone-ethyl 3.75 g/ha) is on record as 0%; in the test on Stellaria media [1] (Picolinafen 0 g/ha, Carfentrazone-ethyl 7.50 g/ha) it was 0%; in the test with Stellaria media [1] (Picolinafen 0 g/ha, Carfentrazone-ethyl 15 g/ha), 0%; in the test with Stellaria media [1] (Picolinafen 0 g/ha, Carfentrazone-ethyl 30 g/ha) it was 0%.
For `O=C(Nc1ccc(F)cc1)c1cccc(Oc2cccc(C(F)(F)F)c2)n1` [Picolinafen, N-(4-fluorophenyl)-6-(-3-trifluoromethylphenoxy)-pyrid-2-ylcarboxamide], the “% Control OBS” value in the test on Alopecuris myosuroides (setting [4]) came to 20%; in the test with Alopecuris myosuroides (setting [5]), 43%; in the test with Alopecuris myosuroides (Picolinafen 120 g/ha, Flufenacet 0 g/ha) it was 60%; in the test with Galium aparine (setting [6]), 78%; with Lamium purpurium (setting [4]), 15%; with Papaver rhoeas (setting [4]) it was 15%. For the same compound, the “% Control OBS” value in the test with Papaver rhoeas (setting [5]) is 35%; in the test on Stellaria media [2] (setting [6]), 53%; with Stellaria media [2] (setting [4]), 73%; in the test on Stellaria media [1] (Picolinafen 30 g/ha, Carfentrazone-ethyl 0 g/ha), 37%; in the test with Stellaria media [1] (Picolinafen 60 g/ha, Carfentrazone-ethyl 0 g/ha) it was 45%; with Stellaria media [1] (Picolinafen 120 g/ha, Carfentrazone-ethyl 0 g/ha) it was 72%. Besides, the “% Control OBS” value in the test on Anthimis mixta (Picolinafen 50 g/ha alone), with Veronica persicaria (Picolinafen 50 g/ha alone) and with Stellaria media [3] (Picolinafen 50 g/ha alone) was 10% each time.
With `CCOC(=O)/C(Cl)=C/c1cc(N2C(=O)C3=C(CCCC3)C2=O)ccc1Cl` [Cinidon-ethyl, ethyl (Z)-2-chloro-3-[2-chloro-5-(1,3-dioxo-4,5,6,7-tetrahydroisoindol-2-yl)-phenyl]acrylate], the “% Control OBS” value with Anthimis mixta (Cinidon-ethyl 50 g/ha alone) is given as 52%; with Veronica persicaria (Cinidon-ethyl 50 g/ha alone) it was 50%; in the test with Stellaria media [3] (Cinidon-ethyl 50 g/ha alone), 23%.
For `CC(C)N(C(=O)COc1nnc(C(F)(F)F)s1)c1ccc(F)cc1` [Flufenacet], the “% Control OBS” value in the test on Alopecuris myosuroides (setting [7]) is reported as 75%; in the test with Galium aparine (setting [7]), 40%; in the test with Galium aparine (setting [8]), 55%; in the test with Lamium purpurium (setting [9]), 18%; in the test with Papaver rhoeas (setting [7]), 0%; with Papaver rhoeas (setting [8]), 0%. Further, the “% Control OBS” value with Papaver rhoeas (setting [9]) came to 18%; in the test on Stellaria media [2] (setting [8]), 0%; in the test on Stellaria media [2] (Picolinafen 0 g/ha, Flufenacet 60 g/ha) it was 0%; in the test on Stellaria media [2] (setting [9]) it was 0%.
